From patent publication US20240309360A1, “TRANS-ACTIVATORS AND METHODS AND USE THEREOF” (THE GOVERNING COUNCIL OF THE UNIVERSITY OF TORONTO, priority 2021, published 2024)

How the values were obtained:
[1] = tested on: EGFP reporter (7×TetO array, basal CMV promoter) in HEK293T reporter cell line; assay: TAD-seq pooled activation screen of 60-aa fragments fused to PYL1; assay type: cell-based, human; settings: for Hit high GFP: high GFP population (top 1%); for logFC high GFP / logFC medium GFP: log 2 fold change of counts, 100 μM ABA 48 hours; for logFC high GFP: sorted high GFP cells (top 1%) vs unsorted cells; for logFC medium GFP: sorted medium GFP cells (top 2-5%) vs unsorted cells; for Hit medium GFP: medium GFP population (top 2-5%)
Text: A fragment library of 75 activators identified in our screen was generated, using 60 amino-acid tiles every 20 aa such that every amino acid was represented by three different fragments (FIG. 3A). The pooled fragment library was fused to PYL1 and recruited to the same GFP reporter used in the original ORFeome screen (FIG. 3A). […] The GFP positive population was sorted into two independent replicates, and fragments in each population were quantified by sequencing. However, in contrast to the ORFeome screen, both high GFP cells (top 1%) and medium GFP cells (top 2-5%) were sorted to potentially identify transactivators of different strength.
Activation domain tiling library generation. A tiling library was generated from 75 proteins identified as activators in the ORFeome screen. Oligonucleotides containing a 5′ adapter […] (SEQ ID NO: 23) and a 3′ adapter […] (SEQ ID NO: 24) to generate a 5′ adapter ([…]) (SEQ ID NO: 11) and a 3′ adapter ([…]) (SEQ ID NO: 12) were synthesized as pooled libraries (Twist Biosciences). 6×50 μl PCR reactions were set up using NEBNext Ultra II Q5 master mix (New England Biolabs) with 5 nM oligos as template. PCR conditions were optimized to find the lowest cycle with a clean visible product at the expected 300 bp length. The thermocycling condition was an initial 30 s at 98° C., then 2 cycles of 98° C. for 10 s, 63° C. for 20 s, and 72° C. for 15 s, followed by 10 more cycles of 98° C. for 10 s and 72° C. for 30 s with a final extension at 72° C. for 5 min. Primers were designed to have Gateway compatible flanking sequences. The resulting libraries were gel extracted by QIAgen gel extraction kit after loading on a 2% TAE gel for 2 hrs at 60V and subsequently cloned into pDONR221 using 20 separate BP reactions in total of 5 μl reactions. The entry plasmid pool was transformed after an overnight reaction into DHSalpha competent E. coli and incubated overnight on LB agar plates containing kanamycin ([…]). Colonies were collected and plasmid DNA purified. 20 LR reactions were then set up as described in the previous section. Each reaction was transformed into NEB 10-beta chemically competent E. coli and grown on LB agar plates containing carbenicillin ([…]) overnight at 30° C. Colonies were counted to ensure >200-fold coverage at each step of cloning, pooled and maxiprepped.
Pooled activation screens. ORFeome and transactivation tiling libraries tagged at the C-terminus with PYL1 were packaged into lentiviral particles. A clonal EGFP reporter cell line stably co-expressing ABI-dCas9 and a gRNA targeting the promoter were transduced at low multiplicity of infection (MOI) with approximately 30% cell survival after puromycin (1 μg/mL) selection. Untransduced cells under the same condition were fully eliminated. Sufficient cells were transduced to maintain >500 fold coverage of the libraries. Recruitment was induced by treating cells with 100 μM abscisic acid (ABA, Sigma) for 48 hours. In parallel, a control batch of cells were treated with equal total volume of DMSO. Cells were then washed in PBS, treated with dissociation buffer (1 mM EDTA, 10 mM KCl, 150 mM NaCl, 5 mM sodium bicarbonate, 0.1% glucose) and resuspended in flow buffer (5 mM EDTA, 25 mM HEPES pH 7, 1% BSA, PBS). High GFP population for each library, top 1% for ORFeome and two bins of top 1% and the next 4% for the TAD screen, were sorted and their genomic DNA directly extracted using QIAmp DNA Blood Mini Kit (QIAGEN).
TAD sequencing. Performed nested PCR on the purified genomic DNA using primers targeting T7 promoter and PYL1 of the backbone vector in the first step creating a ˜470 bp product. Products of the first reaction were then pooled and amplified for an additional 10 steps using primers targeting outside the Gateway sites creating a ˜300 bp product. Libraries were quantified on Qubit dsDNA Broad Range kit and paired-end sequenced on an Illumina MIseq with a custom PAGE-purified R1 sequencing primer. […]

[2] = tested on: EGFP reporter (7×TetO array, basal CMV promoter) in HEK293T reporter cell line; assay: Arrayed recruitment assay, PYL1 fusions individually recruited to reporter via ABI1-dCas9 with ABA; assay type: cell-based, human; set-up: key to independently validated as transactivating fragment: Fragments marked with * were independently validated; settings: for independently validated as transactivating fragment: fragment fused to PYL1, arrayed format; for activation of the EGFP reporter when individually tested: PYL1 fusion, ABA 48 hours, flow cytometry
Text: Treatment of cells with abscisic acid (ABA) induces an interaction between ABI1 and PYL1, thereby recruiting the potential transcriptional activator to a specific genomic locus defined by the guide RNA (gRNA). As a reporter, a HEK293T cell line that contains a stably integrated construct with a 7×TetO array and a basal CMV promoter driving the expression of EGFP was used (Gao et al., 2016). A monoclonal cell line that expresses ABI1-dCas9 and a single gRNA targeting TetO was generated by lentiviral infection.
Arrayed recruitment assays. Reporter cells stably co-expressing ABI-dCas9 and TetO gRNA were seeded either on 48-well or 96-well plates (Sarstedt) to reach 50-70% confluency on the day of transfection. 150 ng of each construct to be tested was transfected with polyethylenimine (PEI) at a ratio of 0.6 μl reagent. The day after transfection, recruitment was induced by treatment with ABA (100 μM). […] Inhibitors were dissolved in DMSO to a stock concentration of 10 mM. The final concentrations used were 100 nM for flavopiridol, 300 nM for JQ1, 1 μM for A-485, 2.5 μM for CX-4945 and 3 μM for AZ191. All inhibitors were a kind gift from the Structural Genomics Consortium (SGC). 48 hours after induction, cells were dissociated and resuspended in flow buffer using a liquid handing robot (TECAN) and analyzed by LSR Fortessa (BD). Cells were gated on high EBFP2 and RFP as a measure of gRNA and transfection control, respectively. Flow cytometry data was analyzed using FlowJo (v10).

Substance | Hit high GFP [1] | logFC high GFP [1] | logFC medium GFP [1] | independently validated as transactivating fragment [2] | activation of the EGFP reporter when individually tested [2] | enrichment compared to the unsorted fragment library ([1]; high GFP and medium GFP populations) | Hit medium GFP [1]
C3orf62-12: 60-aa TAD-seq fragment of C3orf62 (QDSPFKEEAWALLMDKSPQKATDADPGSLKQAFDDHNIVETVLDLEEDYNVMTSFKYQIE; listed as Homo sapiens) [Fragment C3orf62-12] | hit | 6.493 | −0.6067 | 12* | – | – | –
CBX8: CBX-C domain of CBX8 (RPSLIARIPVARILGDPEEESWSPSLTNLEKVVVTDVTSNFLTVTIKESNTDQGFFKEKR; listed as Homo sapiens) | – | – | – | – | activated the reporter weakly | – | –
CBX2: CBX-C domain of CBX2 (SASPPSTGQNPSVSVQTSQDWKPTRSLIEHVFVTDVTANLITVTVKESPTSVGFFNLRHY; listed as Homo sapiens) | – | – | – | – | the most potent activator | – | –
VP64: synthetic transactivator, four tandem copies of the viral VP16 transactivation motif (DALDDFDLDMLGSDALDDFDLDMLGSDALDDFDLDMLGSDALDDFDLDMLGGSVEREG; listed as Homo sapiens) [reference compound] | hit | 5.476 | 2.374 | – | robust induction of GFP | enriched in the high GFP population but depleted in the medium GFP population | –
CITED1-8: 60-aa TAD-seq fragment of CITED1 (ESLSPSAGAQSPAIIDSDPVDEEVLMSLVVELGLDRANELPELWLGQNEFDFTADFPSSC; listed as Homo sapiens) | hit | 6.826 | −1.166 | 8* | – | – | –
CITED2-12: 60-aa TAD-seq fragment of CITED2 (AMLPPNVIDTDFIDEEVLMSLVIEMGLDRIKELPELWLGQNEFDFMTDFVCKQQPSRVSC; listed as Homo sapiens) | hit | 6.148 | −0.9005 | 12* | – | – | –
HOXB2: HOX family transcription factor tested as PYL1 fusion | – | – | – | – | characterized as activators | – | –
KLF7-1: 60-aa TAD-seq fragment of KLF7 (MDVLASYSIFQELQLVHDTGYFSALPSLEETWQQTCLELERYLQTEPRRISETFGEDLDC; listed as Homo sapiens) | hit | 5.998 | 1.29 | KLF7-1* | – | – | hit
YAF2: YAF2_RYBP domain of YAF2; same SEQ ID NO as YAF2-7 (SHKKTRPRLKNVDRSSAQHLEVTVGDLTVIITDFKEKTKSPPASSAASADQHSQSGSSSD; listed as Homo sapiens) | – | – | – | – | robustly activated the reporter | – | –
YAF2-7: 60-aa TAD-seq fragment of YAF2 (SHKKTRPRLKNVDRSSAQHLEVTVGDLTVIITDFKEKTKSPPASSAASADQHSQSGSSSD; listed as Homo sapiens) | hit | 4.987 | 1.828 | YAF2-7* | – | – | hit
NEUROD1-6: 60-aa TAD-seq fragment of NEUROD1 (LRRMKANARERNRMHGLNAALDNLRKVVPCYSKTQKLSKIETLRLAKNYIWALSEILRSG; listed as Homo sapiens) | – | 0.6708 | 0.9533 | – | – | – | hit
p300: known transcriptional activator p300 fused to PYL1 [reference compound] | – | – | – | – | robust induction of GFP | – | –
BRD8-24: 60-aa TAD-seq fragment of BRD8 (IDGKEELDLAEKMDIAVSYTGEELDFETVGDIIAIIEDKVDDHPEVLDVAAVEAALSFCE; listed as Homo sapiens) | hit | 1.593 | 1.566 | – | – | – | hit
NPAS4-39: 60-aa TAD-seq fragment of NPAS4 (CNNLSPEDHSFLEDLATYETAFETGVSAFPYDGFTDELHQLQSQVQDSFHEDGSGGEPTF; listed as Homo sapiens) | – | 0.798 | 0.7684 | – | – | – | hit
ZXDC-13: 60-aa TAD-seq fragment of ZXDC (YLESGGSARTDYRAIQLAKEKKQRGAGSNAGASQSTQRKIKEGKMSPPHFHASQNSWLCG; listed as Homo sapiens) | hit | 2.377 | 1.734 | – | – | – | hit
KLF7-2: 60-aa TAD-seq fragment of KLF7 (YFSALPSLEETWQQTCLELERYLQTEPRRISETFGEDLDCFLHASPPPCIEESFRRLDPL; listed as Homo sapiens) | – | 1.431 | 1.165 | – | – | – | hit
HSF1-24: 60-aa TAD-seq fragment of HSF1 (SGKQLVHYTAQPLFLLDPGSVDTGSNDLPVLFELGEGSYFSEGDGFAEDPTISLLTGSEP; listed as Homo sapiens) | – | 0.6763 | 0.8092 | – | – | – | hit
HSF1-21: 60-aa TAD-seq fragment of HSF1 (MLSSHGFSVDTSALLDLFSPSVTVPDMSLPDLDSSLASIQELLSPQEPPRPPEAENSSPD; listed as Homo sapiens) | – | 0.432 | 0.8992 | – | – | – | hit
SERTAD1-10: 60-aa TAD-seq fragment of SERTAD1 (IDTSMYDNELWAPASEGLKPGPEDGPGKEEAPELDEAELDYLMDVLVGTQALERPPGPGR; listed as Homo sapiens) | – | 0.2349 | 0.8385 | – | – | – | hit
